Measured values published in ChEMBL document CHEMBL1201862, “PubChem BioAssay data set” (2004).
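Cells were grown in 96-well plates and exposed to each compound for 48 hours at five concentrations; endpoints were interpolated linearly between bracketing concentrations, or set to the highest concentration if not reached. GI50 = concentration required for 50% inhibition of growth.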 Active and inactive are the calls of the source. No stated cut-off is given here; in the data, active = GI50 up to about 1.1 µM and inactive = higher.

How the values were obtained:
Assay in all cases: inhibition of tumour cell growth, NCI panel, 48 h
[1] = test system: OVCAR-4
[2] = test system: SN12C
[3] = test system: PC-3
[4] = test system: UACC-257
[5] = test system: OVCAR-8
[6] = test system: HCT-15
[7] = test system: Hs-578T
[8] = test system: SR
[9] = test system: A498
[10] = test system: SF-268
[11] = test system: OVCAR-5
[12] = test system: SW-620
[13] = test system: HOP-62
[14] = test system: SNB-75
[15] = test system: EKVX
[16] = test system: MDA-MB-231
[17] = test system: MDA-MB-435
[18] = test system: M14
[19] = test system: OVCAR-3
[20] = test system: SF-539

Measured: GI50

NNC(=O)CSc1nnc(CCCCCCCCc2nnc(SCC(=O)NN)o2)o1
inactive: [1] > 100 µM | [2] > 100 µM | [3] > 100 µM | [4] > 100 µM | [5] > 100 µM | [7] > 100 µM | [8] > 100 µM | [9] > 100 µM | [10] > 100 µM | [11] > 100 µM | [12] > 100 µM | [13] > 100 µM | [14] > 100 µM | [15] > 100 µM | [16] > 100 µM | [17] > 100 µM | [18] > 100 µM
> 100 µM: [6]

Cc1cc(Cl)ccc1NC(=O)/C(Cc1nc2ccc(C(=O)c3ccccc3)cc2nc1O)=N/NC(=O)c1ccncc1
92 µM: [6]
inactive: [1] > 100 µM | [2] > 100 µM | [3] > 100 µM | [4] > 100 µM | [5] > 100 µM | [7] > 100 µM | [8] 21.7 µM | [19] > 100 µM | [9] > 100 µM | [10] > 100 µM | [11] > 100 µM | [12] > 100 µM | [13] > 100 µM | [14] > 100 µM | [20] > 100 µM | [15] > 100 µM | [16] > 100 µM | [17] 42.4 µM | [18] > 100 µM

COc1ccccc1Cn1c2c(c3cc(O)ccc31)C(=O)c1ccccc1C2=O
inactive: [1] 3.21 µM | [2] 22.8 µM | [3] 8.49 µM | [4] > 100 µM | [5] 11.7 µM | [7] 36.6 µM | [8] 52.8 µM | [19] 28.9 µM | [9] 93.8 µM | [10] 19.7 µM | [11] 10.4 µM | [12] 79.4 µM | [13] 16.1 µM | [14] 19.2 µM | [20] 12.7 µM | [16] 12.4 µM | [17] 84.3 µM | [18] > 100 µM
90.2 µM: [6]

COc1ccc2nc3ccc(OC)cc3c(SCCCl)c2c1
inactive: [1] 12.7 µM | [2] 12.2 µM | [3] 22.6 µM | [4] > 46.1 µM | [5] 8.57 µM | [7] 5.07 µM | [8] 4.8 µM | [19] 18.2 µM | [9] 31.1 µM | [10] 12 µM | [11] 24.8 µM | [12] 12.6 µM | [13] 18.1 µM | [14] 13.7 µM | [20] 7.21 µM | [15] > 49.9 µM | [16] 18.8 µM | [17] 9.95 µM | [18] 12.3 µM
12.7 µM: [6]

CCOC(=O)[C@H](O)[C@@H](O)C(=O)NCc1ccc(C(=O)c2ccccc2)cc1
> 100 µM: [6]
inactive: [1] > 100 µM | [2] > 100 µM | [3] > 100 µM | [4] > 100 µM | [5] > 100 µM | [7] > 100 µM | [8] > 100 µM | [19] > 100 µM | [9] > 100 µM | [10] > 100 µM | [11] > 100 µM | [12] > 100 µM | [13] > 100 µM | [14] > 100 µM | [20] > 100 µM | [15] > 100 µM | [16] > 100 µM | [17] > 100 µM | [18] > 100 µM

COc1cccc2c1NC(=O)Cc1c-2[nH]c2ccccc12
73.8 µM: [6]
inactive: [1] 98.2 µM | [3] > 100 µM | [7] 87.7 µM | [8] > 100 µM | [19] > 100 µM | [9] > 100 µM | [10] > 100 µM | [11] > 100 µM | [12] > 100 µM | [13] > 100 µM | [14] > 100 µM | [20] > 100 µM | [15] > 100 µM | [16] > 100 µM | [17] 29.1 µM | [18] > 100 µM

c1ccc(C(=NNc2cnc3ccccc3n2)c2ccccn2)cc1
0.424 µM: [6]
inactive: [1] 3.89 µM | [3] 2.56 µM | [7] 12 µM | [9] 20.9 µM | [10] 1.52 µM | [11] 2.59 µM | [13] 7.26 µM | [14] 5.85 µM | [20] 1.58 µM | [17] 3.96 µM
active: [2] 0.991 µM | [4] 0.418 µM | [5] 0.352 µM | [8] 1.01 µM | [19] 0.608 µM | [12] 0.423 µM | [15] 0.269 µM | [16] 1 µM | [18] 0.425 µM

COc1ccccc1C1C2=C(COC2=O)Oc2cc3c(cc21)OCO3 (stereo not given)
inactive: [1] 11.7 µM | [2] 3.82 µM | [3] 2.12 µM | [4] 21.1 µM | [5] 3.39 µM | [7] 2.22 µM | [19] 2.55 µM | [9] 2.23 µM | [10] 4.88 µM | [11] 11 µM | [12] 1.38 µM | [13] 3.93 µM | [14] 3.51 µM | [20] 1.97 µM | [15] 2.29 µM | [16] 3.45 µM | [18] 1.4 µM
active: [8] 0.792 µM | [17] 0.249 µM
1.16 µM: [6]

CC1CC(C)(C)CC(OCCN2CCCCC2)(c2ccccc2)C1 (stereo not given)
inactive: [1] 11.3 µM | [2] 12 µM | [3] 12.2 µM | [4] 11.6 µM | [5] 15.2 µM | [7] 13.3 µM | [8] 4.97 µM | [19] 10.4 µM | [9] 12.8 µM | [10] 10.8 µM | [11] 4.19 µM | [12] 13.9 µM | [13] 13.2 µM | [14] 15.1 µM | [20] 15.6 µM | [15] 5.51 µM | [16] 11.4 µM | [17] 11.9 µM | [18] 3.21 µM
10.2 µM: [6]

O=C1c2cc3c(cc2CC12Cc1cc4c(cc1C2=O)CCC4)CCC3
> 100 µM: [6]
inactive: [2] > 100 µM | [3] > 100 µM | [4] > 100 µM | [5] > 100 µM | [7] > 100 µM | [8] > 100 µM | [19] > 100 µM | [9] > 100 µM | [10] > 100 µM | [11] 48.3 µM | [12] > 100 µM | [13] > 100 µM | [14] > 100 µM | [20] > 100 µM | [15] > 100 µM | [16] > 100 µM | [17] > 100 µM | [18] 14.4 µM

CN(C)NC(=S)Nc1ccccc1Br
inactive: [1] > 100 µM | [3] > 100 µM | [4] > 100 µM | [5] > 100 µM | [7] > 100 µM | [8] > 100 µM | [19] > 100 µM | [9] > 100 µM | [11] > 100 µM | [12] > 100 µM | [14] 46.5 µM | [20] > 100 µM | [15] > 100 µM | [16] > 100 µM | [17] > 100 µM | [18] > 100 µM
> 100 µM: [6]

Cc1cc2c(c(S(=O)(=O)c3ccccc3[N+](=O)[O-])c1)NCCC2
inactive: [1] 23.5 µM | [2] 76.4 µM | [3] 27.9 µM | [5] > 100 µM | [7] > 100 µM | [8] > 100 µM | [19] 65.2 µM | [9] > 100 µM | [10] 83.6 µM | [11] > 100 µM | [12] > 100 µM | [13] > 100 µM | [14] > 100 µM | [20] > 100 µM | [15] > 100 µM | [16] > 100 µM | [17] 25.6 µM | [18] 69.8 µM
33.7 µM: [6]

FC(F)(Sc1ncc[nH]1)c1nc2ccccc2o1
> 100 µM: [6]
inactive: [1] > 100 µM | [2] > 100 µM | [3] > 100 µM | [4] > 100 µM | [5] > 100 µM | [7] 62.7 µM | [8] > 100 µM | [19] > 100 µM | [9] > 100 µM | [10] > 100 µM | [11] > 100 µM | [12] > 100 µM | [13] > 100 µM | [14] > 100 µM | [20] > 100 µM | [16] > 100 µM | [17] > 100 µM | [18] > 100 µM

OC1COC(OCc2ccccc2)C(O)C1O (stereo not given)
inactive: [1] > 100 µM | [2] > 100 µM | [3] > 100 µM | [4] > 100 µM | [5] > 100 µM | [7] > 100 µM | [8] > 100 µM | [19] > 100 µM | [9] > 100 µM | [10] > 100 µM | [11] > 100 µM | [12] > 100 µM | [13] > 100 µM | [20] > 100 µM | [15] > 100 µM | [16] > 100 µM | [17] > 100 µM | [18] > 100 µM
> 100 µM: [6]

CC(=O)c1cccc(NC(=O)/C(=N\NC(=S)NN)C2C(=O)Nc3ccccc3[S+]2[O-])c1 (stereo not given)
inactive: [2] > 100 µM | [3] > 100 µM | [4] > 100 µM | [5] > 100 µM | [7] > 100 µM | [8] > 100 µM | [19] > 100 µM | [9] > 100 µM | [10] > 100 µM | [11] > 100 µM | [12] > 100 µM | [13] > 100 µM | [14] > 100 µM | [20] > 100 µM | [15] 39.1 µM | [16] > 100 µM | [17] > 100 µM | [18] > 100 µM
